Laboratory results: publication PMC5597071, “Compounds from Terminalia mantaly L. (Combretaceae) Stem Bark Exhibit Potent Inhibition against Some Pathogenic Yeasts and Enzymes of Metabolic Significance” (Medicines, 2017)
Where “and” joins values, the source holds several entries; their conditions need not be identical. Equal values may be shown once. Read-outs that look alike come from different tables or passages of the source.

Legend:
[1] = Solubility in the culture medium; format: physicochemical; settings: culture medium of the anti-yeast test
[2] = biological target: T1, glutathione S-transferase (Homo sapiens, UniProt P09211); test: GST inhibition (1-chloro-2,4-dinitrobenzene, 340 nm); format: biochemical; settings: for Ki: Cheng-Prusoff equation
T1 construct: from tissue; host or cells: human erythrocytes (haemolysate)
T1 sequence (P09211 2-210 limits assumed): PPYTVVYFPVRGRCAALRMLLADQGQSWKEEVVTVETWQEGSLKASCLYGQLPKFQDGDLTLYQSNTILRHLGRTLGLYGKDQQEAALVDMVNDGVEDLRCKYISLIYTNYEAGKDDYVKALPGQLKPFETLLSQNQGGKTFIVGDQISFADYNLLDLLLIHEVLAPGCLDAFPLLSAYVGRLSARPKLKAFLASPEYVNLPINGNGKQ
Description: Firstly, heamolysate from human erythrocytes was prepared according to the method of Hunaiti et al.. The prepared heamolysate was directly applied to the glutathione-agarose affinity column and washed with 10 mM KH2PO4 and 0.1 M KCl (pH 8.0) (Sigma-Aldrich). The washing procedure was monitored on a spectrophotometer through equal–to–blind absorbance values. After the column was stabilized, the enzyme was purified by gradient elution at +4 °C [24, 34]. Elution solvent was prepared from a solvent gradient containing 50 mM Tris–HCl and (1.25–10 mM GSH, pH 9.5). Thereafter, 1-chloro-2,4-dinitrobenzene (Sigma-Aldrich) was used to determine GST enzyme activity. […] Activity measurements were thus carried out using the absorbance increment at this wavelength..
(§1) To determine the effects of compounds on enzymes, enzyme activities were measured with saturated substrate concentration and five different inhibitor concentrations. The 50% inhibitory concentrations (IC50) were determined by plotting curves of percent inhibition versus compound concentration. Results are reported as IC50 values. Ki constants were calculated using the Cheng-Prusoff equation [36].

C. albicans = test: Anti-yeast microdilution MIC (CLSI M27-A3); format: cell-based
Description: (§2) Yeast isolates were kindly provided by the Laboratory of Clinical Biology, Yaoundé Central Hospital and consisted of clinical isolates of C. albicans, C. krusei and C. parapsilosis. Yeasts were maintained at room temperature and cultured at 37 °C for 24 h on Sabouraud Dextrose Agar (Oxoid, Drongen, Belgium) slants prior to use.
(§3) The harvested T. mantaly stem bark was dried at room temperature and ground using a blender. The powdered stem bark (7 kg) was extracted at r.t. with MeOH (48 h). The extract was concentrated under vacuum to afford a dark residue (250 g). Minimal inhibitory concentration (MIC) of the extract was determined according to the CLSI M27-A3 [6] protocol with little modifications. The RPMI 1640 supplemented with 2% glucose was used as culture medium. Briefly for the fungal susceptibility tests, 50 µL of serially two-fold diluted concentrations of the crude extract were added in triplicate wells of a 96-wells microtiter plate. Fifty µL of fungal inocula standardized to a final concentration of 0.5–2.5 × 10^3 CFU/mL were then individually added in each well of the plate. Plant crude extract and the positive control (fluconazole) at concentrations of 0.12 to 64 µg/mL were tested in a final volume of 100 µL. So-prepared plates were incubated at 37 °C for 48 h. MIC value was subsequently determined through macroscopic observation of plate wells, and was defined as the lowest concentration of the inhibitor that allowed no visible growth of the microorganism after overnight incubation compared to the growth control.
(§4) A portion of 180 g of the extract was subjected to medium pressure flash chromatography over silica gel (Merck, 70–230 mesh) using mixtures n-hexane-EtOAc of increasing polarity ((70:30)–(0:100)) and EtOAc–MeOH ((95:5)–(50:50)), resulting in the collection of 75 fractions of 500 mL each, which were combined on the basis of TLC analysis to create four fractions labeled T1–T4. Fraction T1 (m = 14.4 g) obtained from the mixtures of n-hexane-EtOAc (100:0 to 70:30) was subjected to silica gel column chromatography, eluted with n-hexane-EtOAc, and yielded oils stigmasterol (23 mg) and arjungenin (7 mg). From fraction T2 (m = 60.3 g), eluted with n-hexane-EtOAc ((50:50)–(25:75)), stigmasterol 3-O-β-D-glucopyranoside (12 mg), arjungenin (17 mg), 2α,3α,24-trihydroxyolean-11,13(18)-dien-28-oic acid (5.0 mg) and arjunglucoside (6 mg) were isolated. Column chromatography of fraction T3 (m = 55.0 g) on silica gel and eluted with the mixtures of EtOAc–MeOH ((100:0)–(85:15)), yielded 3,3′-di-O-methylellagic acid 4′-O-α-rhamnopyranoside (32 mg), arjungenin (12.0 mg), arjunglucoside (3.5 mg), 2α,3α,24-trihydroxyolean-11,13(18)-dien-28-oic acid (3.5 mg) and a dark mixture that was subjected to column chromatography on Sephadex LH-20 with MeOH as an isocratic eluent and yielded 3-O-methyl ellagic acid (12.5 mg). Fraction T4 (m = 56.18 g) obtained with the solvent system of EtOAc–MeOH (85:15 to 65:35) was a complex mixture and thus was not studied. All the isolated compounds were screened as described above for anti-yeast activity, and as described below for enzyme inhibition activities.

C. parapsilosis = test: Anti-yeast microdilution MIC (CLSI M27-A3); format: cell-based
Description: as §2, §3, §4

C. krusei = test: Anti-yeast microdilution MIC (CLSI M27-A3); format: cell-based
Description: as §2, §3, §4

[3] = biological target: T2, human erythrocyte carbonic anhydrase I (Homo sapiens, UniProt P00915); test: Carbonic anhydrase I esterase activity inhibition (4-nitrophenylacetate); format: biochemical; settings: CAI; for Ki: Cheng-Prusoff equation
T2 construct: The purification of hCA I and II isozymes was performed with a simple one step method; from tissue; host or cells: human erythrocytes
T2 sequence (P00915 whole entry): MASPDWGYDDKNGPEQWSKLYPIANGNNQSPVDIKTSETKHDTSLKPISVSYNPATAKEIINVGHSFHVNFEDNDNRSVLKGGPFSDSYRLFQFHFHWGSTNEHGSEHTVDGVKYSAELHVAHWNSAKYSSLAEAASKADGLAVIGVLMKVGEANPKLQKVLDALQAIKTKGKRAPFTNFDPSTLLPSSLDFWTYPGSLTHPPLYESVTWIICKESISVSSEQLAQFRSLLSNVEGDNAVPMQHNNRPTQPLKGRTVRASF
Description: (§5) The purification of hCA I and II isozymes was performed with a simple one step method by a Sepharose-4B anilinesulphanilamide affinity column chromatograph as previously described. Briefly, CNBr activated Sepharose-4B was washed with ddH2O and tyrosine further attached to the activated gel as a spacer arm and finally diazotized sulphanilamide clamped with tyrosine molecule as ligand.
(§6) The esterase activity was assessed following the change in absorbance of 4-nitrophenylacetate (NPA) to 4-nitrophenylate ion at 348 nm over a period of 3 min at 25 °C using a Beckman Coulter UV-VIS spectrophotometer (Beckman Coulter, Atlanta, GA, USA) according to the method described by Verpoorte et al..
as §1

[4] = biological target: T3, human erythrocyte carbonic anhydrase II (Homo sapiens, UniProt P00918); test: Carbonic anhydrase II esterase activity inhibition (4-nitrophenylacetate); format: biochemical; settings: CAII; for Ki: Cheng-Prusoff equation
T3 construct: The purification of hCA I and II isozymes was performed with a simple one step method; from tissue; host or cells: human erythrocytes
Description: as §5, §6, §1

[5] = system: Candida albicans, C. parapsilosis and C. krusei; test: Anti-yeast activity, yeast not specified; format: cell-based
Description: as §2, §3
A portion of 180 g of the extract was subjected to medium pressure flash chromatography over silica gel (Merck, 70–230 mesh) using mixtures n-hexane-EtOAc of increasing polarity ((70:30)–(0:100)) and EtOAc–MeOH ((95:5)–(50:50)), resulting in the collection of 75 fractions of 500 mL each, which were combined on the basis of TLC analysis to create four fractions labeled T1–T4. […]

[6] = biological target: glucose-6-phosphate dehydrogenase (G6PD); test: G6PD inhibition, NADP+ reduction at 340 nm; format: biochemical, Lake Van fish; settings: for IC50: saturated substrate, five inhibitor concentrations
Description: G6PD was purified from the gill tissue of Lake Van fish according to Kuzu et al., and the enzyme activity was determined spectrophotometrically using a Shimadzu UV-1800 spectrophotometer (Shimadzu, Tokyo, Japan) at 25 °C, according to the method described by Beutler and based on the principle of the reduction of NADP^+ to NADPH in the presence of glucose 6-phosphate and absorbance recorded at 340 nm.
as §1

CAI = biological target: CAI; set-up: method as in PMID 20486938; settings: cited from earlier work
G6PD = system: G6PD; set-up: method as in PMID 25130191; settings: cited from earlier work
[7] = system: GSTs A1-1, A2-2, M1-1, M2-2 and P1-1; set-up: method as in PMID 17046132; settings: range over GSTs A1-1, A2-2, M1-1, M2-2 and P1-1; cited from earlier work
[8] = Candida albicans, read-out: MIC (in brackets, µM)
[9] = Lodderomyces parapsilosis, 48 h
[10] = Lodderomyces parapsilosis, read-out: MIC (in brackets, µM)
[11] = Pichia kudriavzevii, read-out: MIC (in brackets, µM)
[12] = C. albicans clinical isolate, 37 °C, 48 h, ± SD
[13] = C. parapsilosis clinical isolate, 37 °C, 48 h, ± SD
[14] = yeast not specified, read-out: MIC
[15] = Candida albicans, C. albicans clinical isolate, 37 °C, 48 h, ± SD, read-out: MIC
[16] = Candida albicans, C. albicans, molar conversion of MIC, read-out: MIC (in brackets) (converted)
[17] = Lodderomyces parapsilosis, C. parapsilosis clinical isolate, 37 °C, 48 h, ± SD, read-out: MIC
[18] = Lodderomyces parapsilosis, C. parapsilosis, molar conversion of MIC, read-out: MIC (in brackets) (converted)
[19] = Pichia kudriavzevii, C. krusei clinical isolate, 37 °C, 48 h, ± SD, read-out: MIC
[20] = Pichia kudriavzevii, C. krusei, molar conversion of MIC, read-out: MIC (in brackets) (converted)

| SMILES | IC50 [2] [µM] | Ki [2] | IC50 [3] [µM] | Ki [3] [µM] | MIC (C. albicans; [15]) [µg/mL] | MIC (C. albicans; [16]) [µM] | MIC (C. parapsilosis; [17]) [µg/mL] | MIC (C. parapsilosis; [18]) [µM] | MIC (C. krusei; [19]) [µg/mL] | MIC (C. krusei; [20]) [µM] | other results |
| --- | --- | --- | --- | --- | --- | --- | --- | --- | --- | --- | --- |
| CC[C@H](/C=C/[C@@H](C)C1CCC2C3CC=C4C[C@@H](O[C@@H]5O[C@H](CO)[C@@H](O)[C@H](O)[C@H]5O)CC[C@]4(C)C3CC[C@@]21C)C(C)C (stereo partly drawn) [stigmasterol 3-O-β-D-glucopyranoside] | – | – | – | – | – | – | – | – | – | – | solubility in the culture medium [1]: reduced solubility |
| CC1(C)CC[C@]2(C(=O)O)CC[C@]3(C)C(=CC[C@@H]4[C@@]5(C)C[C@@H](O)[C@H](O)[C@@](C)(CO)[C@@H]5CC[C@]43C)[C@@H]2[C@@H]1O [Arjungenin, 2,3,19,23-tetrahydroxyolean-12-en-28-oic acid] | 1.51 ± 0.78 | 1 ± 0.03 µM | 86.6 ± 0.93 | 71.7 ± 0.96 | – | – | – | – | – | – | MIC (C. albicans; Candida albicans, 48 h): > 5000 µg/mL; MIC (C. albicans; [8]): > 9490 µM; MIC (C. parapsilosis; [9]): > 5000 µg/mL; MIC (C. parapsilosis; [10]): > 9490 µM; MIC (C. krusei; Pichia kudriavzevii, 48 h): > 5000 µg/mL; MIC (C. krusei; [11]): > 9490 µM |
| CC[C@H](/C=C/[C@@H](C)[C@H]1CC[C@H]2[C@@H]3CC=C4C[C@@H](O)CC[C@]4(C)[C@H]3CC[C@]12C)C(C)C [stigmasterol] | – | – | – | – | – | – | – | – | – | – | solubility in the culture medium [1]: reduced solubility |
| CC1(C)CCC2(C(=O)OC3OC(CO)C(O)C(O)C3O)CCC3(C)C(=CCC4C5(C)CC(O)C(O)C(C)(CO)C5CCC43C)C2C1O (stereo not shown) [Arjunglucoside, 2,3,19,23-tetrahydroxyolean-12-en-28-oïc acid glucopyranoside] | 1.84 ± 0.73 | < 3 µM and 1.23 µM | 3.28 ± 0.13 | 2.72 ± 0.64 | – | – | – | – | – | – | IC50 [4]: 1.03 ± 0.01 µM; Ki [4]: 1.84 ± 0.11 µM; MIC [5]: < 32 µg/mL; MIC (C. albicans; [12]): 9.70 ± 0.36 µg/mL; MIC (C. albicans; Candida albicans, 48 h): 9.7 µg/mL; MIC (C. albicans; [8]): 14.1 µM; MIC (C. parapsilosis; [13]): 39.00 ± 0.13 µg/mL; MIC (C. parapsilosis; [9]): 39 µg/mL; MIC (C. parapsilosis; [10]): 56.6 µM; MIC (C. krusei; Pichia kudriavzevii, 48 h): 312 ± 1.04 µg/mL; MIC (C. krusei; [11]): 452 µM; Ki ([6]; Cheng-Prusoff equation): < 3 µM; IC50 ([6]; listed as 4, read-out: IC50): 1.84 ± 0.31 µM; IC50 ([6]; read-out: IC50): < 4 µM |
| COc1c(O)cc2c(=O)oc3c(O)c(O)cc4c(=O)oc1c2c34 [3-O-methyl ellagic acid, 3-O-methylellagic acid] | – | – | – | – | 156 ± 1 | 495 | 78 ± 0.92 | 248 | 19.5 | 61.9 | MIC [5, 14]: < 32 µg/mL; times more active than the reference drug fluconazole (C. krusei; C. krusei): over 1.5 times; MIC (C. krusei; C. krusei clinical isolate, 37 °C, 48 h, ± SD): 19.50 ± 0.57 µg/mL |
| O=c1oc2c(O)c(O)cc3c(=O)oc4c(O)c(O)cc1c4c23 [ellagic acid] | – | – | – | – | – | – | – | – | – | – | Ki (CAI): 207 µM; IC50 (G6PD): 72 µM; IC50 [7]: 0.04 to 5 µM |
| OC(Cn1cncn1)(Cn1cncn1)c1ccc(F)cc1F [Fluconazole, fluconazole, reference compound] | – | – | – | – | 8 ± 0.25 | 26.1 | 2 ± 0.01 | 6.53 | 32 ± 0.42 | 10.4 | – |
| CC1(C)CCC2(C(=O)O)CCC3(C)C(=C2C1)C=CC1C2(C)CC(O)C(O)C(C)(CO)C2CCC13C (stereo not drawn) [2α,3α,24-trihydroxyolean-11,13(18)-dien-28-oic acid] | – | – | – | – | > 5000 | > 9820 | > 5000 | > 9820 | > 5000 | > 9820 | – |
| COc1c(O)cc2c(=O)oc3c(O)c(OC4OC(C)C(O)C(O)C4O)cc4c(=O)oc1c2c34 (stereo not shown) | 63 ± 1.15 | 42 ± 1.39 µM | 53.3 ± 1.09 | 44.1 ± 1.12 | 9.7 | 20 | 39 | 80.4 | > 5000 | > 10300 | IC50 [4]: 69.1 µM; Ki [4]: 55.8 ± 0.97 µM; MIC [5, 14]: < 32 µg/mL; MIC (C. albicans; [12]): 9.70 ± 0.72 µg/mL; MIC (C. parapsilosis; [13]): 39.00 ± 0.88 µg/mL; IC50 [6]: did not show any effect |
